Numbers after ± are expanded uncertainties.
Test: Boiling temperature at pressure P
Details: 101.3 kPa; Liquid; Ebulliometric method (Recirculating still)

Row | Boiling temperature at pressure P [°C] | Structure (SMILES)
1 | 116.40 ± 0.2 | CC(=O)OCC(C)C [2-methylpropyl ethanoate]
2 | 142.00 ± 0.2 | CC(=O)OCCC(C)C [3-methylbutyl ethanoate]
3 | 57.1 ± 0.2 | COC(C)=O [methyl ethanoate]

Row | Structure (SMILES) | Boiling temperature at pressure P [°C]
4 | Cc1ccc(C)cc1 [1,4-dimethylbenzene] | 138.34 ± 0.2
